Like-named read-outs stand apart in the source and are kept apart here.
Key:
MKN-45 = experiment: Cell viability / antiproliferative assay (WST-8), MKN-45; settings: read-out: MKN-45 IC50;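 also: MKN-45 is a human gastric cancer line overexpressing c-MET, growth inhibition read as WST-8 formazan absorbance at 450 nm after 2 h dye incubation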
Method: c-MET overexpressing human gastric cancer cell lines [MKN45] and [SNU638] were cultured in RPMI medium with 10% fetal bovine serum, penicillin (100U/ml), and streptomycin (100mg/ml), and c-MET exon 14 skipping mutant human gastric cancer cell lines [Hs746T] were cultured in DMEM media. The c-MET overexpressing human lung cancer cell line EBC-1 was cultured in MEM media with the addition of 10% fetal bovine serum, penicillin (100U/ml), and streptomycin (100mg/ml). […] The compound synthesized in accordance with the present invention was prepared with a raw material solution of 10 mM dissolved in DMSO (dimethyl sulfoxide), and was sequentially diluted and processed.
In order to observe the inhibitory activity on cell growth, cells were dispensed in a 96-well plate at a concentration of 5,000 cells/well, and then treated with the compound prepared at various concentrations for 72 hours. The viability of the cells was calculated using GraphicPad Prism 8.0 software by adding 10 ml per well of WST-8 (water soluble tetrazolium salt) sample, which reacts with dehydrogenase present in the electron transport system of mitochondria to produce formazon, incubated for 2 hours, and measured absorbance at 450 nm.

c-MET = c-MET (Homo sapiens, UniProt P08581); experiment: c-MET protein degradation (Simple Western), MKN-45; assay type: cell-based; design: assess the resolution of the compound of the present invention for c-MET expressed in cells; endogenous in cells; host or cells: MKN45 (human gastric cancer); settings: c-MET overexpressing gastric cancer cell line MKN-45, treated 24 hours
Chain of c-MET (P08581 25-1390): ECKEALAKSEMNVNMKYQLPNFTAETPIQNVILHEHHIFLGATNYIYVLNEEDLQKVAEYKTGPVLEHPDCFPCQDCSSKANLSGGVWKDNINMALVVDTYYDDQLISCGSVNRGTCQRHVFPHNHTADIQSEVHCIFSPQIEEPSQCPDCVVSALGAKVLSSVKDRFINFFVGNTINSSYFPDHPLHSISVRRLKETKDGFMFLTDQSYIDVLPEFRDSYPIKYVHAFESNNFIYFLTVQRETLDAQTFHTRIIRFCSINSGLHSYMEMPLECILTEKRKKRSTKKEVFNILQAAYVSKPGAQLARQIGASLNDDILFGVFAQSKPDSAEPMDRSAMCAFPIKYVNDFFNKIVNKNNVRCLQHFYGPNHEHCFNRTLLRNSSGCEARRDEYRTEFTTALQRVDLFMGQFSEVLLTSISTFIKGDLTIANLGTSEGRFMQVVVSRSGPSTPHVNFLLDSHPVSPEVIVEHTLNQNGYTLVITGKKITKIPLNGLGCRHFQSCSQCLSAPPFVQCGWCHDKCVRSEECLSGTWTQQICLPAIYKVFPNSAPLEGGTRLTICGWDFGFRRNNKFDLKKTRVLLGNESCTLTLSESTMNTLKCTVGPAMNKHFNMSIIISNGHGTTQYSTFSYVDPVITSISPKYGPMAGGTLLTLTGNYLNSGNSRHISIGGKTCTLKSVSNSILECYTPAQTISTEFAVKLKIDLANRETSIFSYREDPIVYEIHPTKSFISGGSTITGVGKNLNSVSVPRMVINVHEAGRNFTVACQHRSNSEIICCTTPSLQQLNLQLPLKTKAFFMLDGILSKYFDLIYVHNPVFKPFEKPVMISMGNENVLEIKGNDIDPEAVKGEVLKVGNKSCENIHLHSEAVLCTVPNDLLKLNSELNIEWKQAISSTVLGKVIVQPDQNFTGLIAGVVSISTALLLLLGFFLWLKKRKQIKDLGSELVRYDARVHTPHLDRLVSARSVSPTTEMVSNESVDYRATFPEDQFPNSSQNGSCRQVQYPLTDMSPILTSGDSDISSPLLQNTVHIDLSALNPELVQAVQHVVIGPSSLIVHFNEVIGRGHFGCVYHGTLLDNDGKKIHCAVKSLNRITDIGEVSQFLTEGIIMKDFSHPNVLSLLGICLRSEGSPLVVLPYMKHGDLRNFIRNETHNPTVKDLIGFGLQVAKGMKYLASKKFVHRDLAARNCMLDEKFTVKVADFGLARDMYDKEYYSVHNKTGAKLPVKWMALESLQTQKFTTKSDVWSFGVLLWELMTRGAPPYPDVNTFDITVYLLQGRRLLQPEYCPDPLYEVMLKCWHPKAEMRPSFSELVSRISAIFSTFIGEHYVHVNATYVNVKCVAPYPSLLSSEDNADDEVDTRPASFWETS
Method: In order to assess the resolution of the compound of the present invention for c-MET expressed in cells, cells were dispensed in a 12-well plate at a concentration of 2 × 10^5 cells/well, and then gastric cancer cell lines were treated with samples for 24 hours and lung cancer cell lines were treated for 48 hours. Cell lysates were collected using a scraper on ice, centrifuged at 4°C15,000 rpm for 30 min to obtain a protein-containing supernatant. Protein expression was then measured using the Simple Western Automated Western Blot System Abby instrument using 3 µg of protein for each sample. SDS and heat-induced denaturation proteins were separated by molecular weight, attached to capillary, reacted with anti-c-MET or anti-GAPDH antibodies, which are primary antibodies, and then reacted with HRP-conjugated secondary antibodies, and analyzed the protein expression signal with compass software. Protein expression was normalized based on the expression value of GAPDH, and protein development in each sample was measured as a percentage (%) based on 100% of samples treated with 0.1% DMSO carriers, and DC50 (concentration of a compound where 50% protein inhibition is achieved) was calculated from the change in protein expression amount due to compound treatment.

[1] = MKN-45 cells, 72 hours, WST-8, Table 2
[2] = MKN-45 cells, 72 hours, WST-8, Table 1

| Structure (SMILES) | IC50 (MKN-45; Homo sapiens, MKN-45, 72 h) | DC50 (c-MET; Table 2) | IC50 (MKN-45; [1]) | IC50 (MKN-45; [2]) | DC50 (c-MET; Table 1) |
| --- | --- | --- | --- | --- | --- |
| Cc1nn(C2CCC(=O)NC2=O)c(=O)c2ccc(N3CCC(CN4CCN(C(=O)CN5CCC(COc6cnc(-c7cccc(Cn8nc(-c9cccc(C#N)c9)ccc8=O)c7)nc6)CC5)CC4)CC3)cc12 (centres unmarked) [ICT-0001236] | < 100 nM | < 100 nM |  |  |  |
| Cc1nn(C2CCC(=O)NC2=O)c(=O)c2cc(N3CCO[C@H](CN4CCN(CC(=O)N5CCC(COc6cnc(-c7cccc(Cn8nc(-c9cccc(C#N)c9)ccc8=O)c7)nc6)CC5)CC4)C3)ccc12 (stereo partly drawn) [ICT-0001271, 3-(1-(3-(5-((1-(2-(4-(((2R)-4-(3-(2,6-dioxopiperidin-3-yl)-1-methyl-4-oxo-3,4-dihydrophthalazine-6-yl)morpholine-2-il)methyl)piperazine-1-il)acetyl)piperidine-4-il)methoxy)pyrimidine-2-yl)benzyl)6-oxo-1,6-dihydropyridazine-3-yl)benzonitrile] |  | < 100 nM | < 100 nM |  |  |
| Cn1cc(-c2cnc3c(nnn3C[C@@H]3CN(c4ncc(-c5ccc(CN6CCN(C(=O)COCCOCCOCCOCCNc7ccc8c(=O)n(C9CCC(=O)NC9=O)ncc8c7)CC6)cc5)cn4)CCO3)n2)cn1 (stereo partly drawn) [ICT-0000939, 3-[6-(15-{4-[(4-{2-[(2S)-2-{[5-(1-methyl-1H-pyrazole-4-yl)-1H-[1,2,3]triazolo[4,5-b]pyrazine-1-yl]methyl}morpholine-4-il]pyrimidine-5-yl}phenyl)methyl]piperazine-1-yl}-15-oxo-4,7,10,13-tetraoxa-1-azpentadecan-1-yl)-1-oxo-1,2-dihydroptalazine-2-yl]piperidin-2,6-dione] |  |  |  | 100 to 1000 nM | > 1000 nM |
| Cc1nn(C2CCC(=O)NC2=O)c(=O)c2ccc(N3CCN(CC4CN(CC(=O)N5CCC(COc6cnc(-c7cccc(Cn8nc(-c9cccc(C#N)c9)ccc8=O)c7)nc6)CC5)C4)CC3)cc12 (centres unmarked) [ICT-0001253] | < 100 nM | < 100 nM |  |  |  |
| Cc1nn(C2CCC(=O)NC2=O)c(=O)c2cc(F)c(N3CCN(CC4CCN(CC(=O)N5CCC(COc6cnc(-c7cccc(Cn8nc(-c9cccc(C#N)c9)ccc8=O)c7)nc6)CC5)CC4)CC3)cc12 (centres unmarked) [ICT-0001272] | < 100 nM | < 100 nM |  |  |  |
| Cc1nn(C2CCC(=O)NC2=O)c(=O)c2ccc(NCCCCCC(=O)N3CCC(COc4cnc(-c5cccc(Cn6nc(-c7cccc(C#N)c7)ccc6=O)c5)nc4)CC3)cc12 (centres unmarked) [ICT-0000990] | 100 to 1000 nM | 100 to 1000 nM |  |  |  |
| Cc1nn(C2CCC(=O)NC2=O)c(=O)c2cc(N3CCN(CC(=O)N4CCC(COc5cnc(-c6cccc(Cn7nc(-c8cccc(C#N)c8)ccc7=O)c6)nc5)CC4)CC3)ccc12 (centres unmarked) [ICT-0001214, 3-(1-(3-(5-((1-(2-(4-(3-(2,6-dioxopiperidin-3-yl)-1-methyl-4-oxo-3,4-dihydropetalazine-6-yl)piperazine-1-il)acetyl)piperidine-4-il)methoxy)pyrimidine-2-yl)benzyl)6-oxo-1,6-dihydropyridazine-3-yl)benzonitrile] |  | < 100 nM | < 100 nM |  |  |
| N#Cc1cccc(-c2ccc(=O)n(Cc3cccc(-c4ncc(OCC5CCN(CC(=O)NCCCCCc6ccc7c(=O)n(C8CCC(=O)NC8=O)ncc7c6)CC5)cn4)c3)n2)c1 (centres unmarked) [ICT-0001206] | < 100 nM | < 100 nM |  |  |  |
| Cc1nn(C2CCC(=O)NC2=O)c(=O)c2ccc(N3CCN(CC(=O)N4CCC(COc5cnc(-c6cccc(Cn7nc(-c8cccc(C#N)c8)ccc7=O)c6)nc5)CC4)CC3)cc12 (centres unmarked) [ICT-0001173] | < 100 nM | < 100 nM |  |  |  |
| Cn1cc(-c2cnc3c(nnn3C[C@@H]3CN(c4ncc(-c5ccc(CN6CCN(C(=O)CCCCNc7cccc8cnn(C9CCC(=O)NC9=O)c(=O)c78)CC6)cc5)cn4)CCO3)n2)cn1 (stereo partly drawn) [ICT-0000959, 3-{8-[(5-{4-[(4-{2-[(2S)-2-{[5-(1-methyl-1H-pyrazole-4-yl)-1H-[1,2,3]triazolo[4,5-b]pyrazine-1-yl]methyl}morpholine-4-il]pyrimidine-5-yl}phenyl)methyl]piperazine-1-yl}-5-oxopentyl)amino]-1-oxo-1,2-dihydropthalazine-2-yl}piperidine-2,6-dione] |  |  |  | < 100 nM | < 100 nM |
| Cc1nn(C2CCC(=O)NC2=O)c(=O)c2ccc(N3CCN(CCCC(=O)N4CCC(COc5cnc(-c6cccc(Cn7nc(-c8cccc(C#N)c8)ccc7=O)c6)nc5)CC4)CC3)cc12 (centres unmarked) [ICT-0001175, 3-(1-(3-(5-((1-(4-(4-(2-(2,6-dioxopiperidine-3-yl)-4-methyl-1-oxo-1,2-dihydropthalazine-6-yl)piperazine-1-yl)butanoyl)piperidine-4-il)methoxy)pyrimidine-2-yl)benzyl)6-oxo-1,6-dihydropyridazine-3-yl)benzonitrile] | < 100 nM | < 100 nM |  |  |  |
| Cc1nn(C2CCC(=O)NC2=O)c(=O)c2cc(N3CCN(C(=O)CCCCN4CCC(COc5cnc(-c6cccc(Cn7nc(-c8cccc(C#N)c8)ccc7=O)c6)nc5)CC4)CC3)ccc12 (centres unmarked) [ICT-0001251] | < 100 nM | < 100 nM |  |  |  |
| N#Cc1cccc(-c2ccc(=O)n(Cc3cccc(-c4ncc(OCC5CCN(C(=O)COCCOCCOCCNc6ccc7c(=O)n(C8CCC(=O)NC8=O)ncc7c6)CC5)cn4)c3)n2)c1 (centres unmarked) [ICT-0000987] |  | 100 to 1000 nM | < 100 nM |  |  |
| Cc1nn(C2CCC(=O)NC2=O)c(=O)c2ccc(NCCOCCOCCOCCOCCC(=O)N3CCC(COc4cnc(-c5cccc(Cn6nc(-c7cccc(C#N)c7)ccc6=O)c5)nc4)CC3)cc12 (centres unmarked) [ICT-0001091] | < 100 nM | < 100 nM |  |  |  |
| Cn1cc(-c2cnc3c(nnn3C[C@@H]3CN(c4ncc(-c5ccc(CN6CCN(C(=O)CCCCCCNc7cccc8cnn(C9CCC(=O)NC9=O)c(=O)c78)CC6)cc5)cn4)CCO3)n2)cn1 (stereo partly drawn) [ICT-0000960, 3-{8-[(7-{4-[(4-{2-[(2S)-2-{[5-(1-methyl-1H-pyrazole-4-yl)-1H-[1,2,3]triazolo[4,5-b]pyrazine-1-yl]methyl}morpholine-4-yl]pyrimidine-5-yl}phenyl)methyl]piperazine-1-yl}-7-oxoheptyl)amino]-1-oxo-1,2-dihydrophthalazine-2-yl}piperidine-2,6-dione] | < 100 nM |  |  |  | 100 to 1000 nM |
| Cc1nn(C2CCC(=O)NC2=O)c(=O)c2ccc(N3CCC(NC4CCN(CC(=O)N5CCC(COc6cnc(-c7cccc(Cn8nc(-c9cccc(C#N)c9)ccc8=O)c7)nc6)CC5)CC4)CC3)cc12 (centres unmarked) [ICT-0001219] | < 100 nM | < 100 nM |  |  |  |
| Cc1nn(C2CCC(=O)NC2=O)c(=O)c2cc(N3CCC(N4CCN(CC(=O)N5CCC(COc6cnc(-c7cccc(Cn8nc(-c9cccc(C#N)c9)ccc8=O)c7)nc6)CC5)CC4)CC3)ccc12 (centres unmarked) [ICT-0001270] | < 100 nM | < 100 nM |  |  |  |
| N#Cc1cccc(-c2ccc(=O)n(Cc3cccc(-c4ncc(OCC5CCN(CC(=O)N6CCN(c7ccc8c(=O)n(C9CCC(=O)NC9=O)ncc8c7)CC6)CC5)cn4)c3)n2)c1 (centres unmarked) [ICT-0001221] | < 100 nM | < 100 nM |  |  |  |
| N#Cc1cccc(-c2ccc(=O)n(Cc3cccc(-c4ncc(OCC5CCN(C(=O)CCN6CCN(c7ccc8c(=O)n(C9CCC(=O)NC9=O)ncc8c7)CC6)CC5)cn4)c3)n2)c1 (centres unmarked) [ICT-0001199, 3-(1-{[3-(5-{[1-(3-{4-[2-(2,6-dioxopiperidin-3-yl)-1-oxo-1,2-dihydropthalazine-6-yl]piperazine-1-yl}propanoyl)piperidine-4-il]methoxy}pyrimidin-2-yl)phenyl]methyl}-6-oxo-1,6-dihydropyridazine-3-yl)benzonitrile] | < 100 nM | < 100 nM |  |  |  |
| Cc1nn(C2CCC(=O)NC2=O)c(=O)c2cc(N3CCC(CN4CCN(C(=O)CN5CCC(COc6cnc(-c7cccc(Cn8nc(-c9cccc(C#N)c9)ccc8=O)c7)nc6)CC5)CC4)CC3)ccc12 (centres unmarked) [ICT-0001234] | < 100 nM | > 1000 nM |  |  |  |
| Cc1nn(C2CCC(=O)NC2=O)c(=O)c2ccc(N3CCN(C[C@H]4CCN(CC(=O)N5CCC(COc6cnc(-c7cccc(Cn8nc(-c9cccc(C#N)c9)ccc8=O)c7)nc6)CC5)CO4)CC3)cc12 (some centres unmarked) [ICT-0001254] |  | 100 to 1000 nM | < 100 nM |  |  |
| Cn1cc(-c2cnc3c(nnn3C[C@@H]3CN(c4ncc(-c5ccc(CN6CCN(C(=O)CN7CCN(c8ccc9c(=O)n(C%10CCC(=O)NC%10=O)ncc9c8)CC7)CC6)cc5)cn4)CCO3)n2)cn1 (some centres unmarked) [ICT-0001109] | < 100 nM |  |  |  | < 100 nM |
| Cc1nn(C2CCC(=O)NC2=O)c(=O)c2cc(N3CCC(CN4CCN(CC(=O)N5CCC(COc6cnc(-c7cccc(Cn8nc(-c9cccc(C#N)c9)ccc8=O)c7)nc6)CC5)CC4)CC3)ccc12 (centres unmarked) [ICT-0001239] | < 100 nM | < 100 nM |  |  |  |
| Cc1nn(C2CCC(=O)NC2=O)c(=O)c2ccc(NCCOCCOCC(=O)N3CCC(COc4cnc(-c5cccc(Cn6nc(-c7cccc(C#N)c7)ccc6=O)c5)nc4)CC3)cc12 (centres unmarked) [ICT-0001087] | < 100 nM | < 100 nM |  |  |  |
| N#Cc1cccc(-c2ccc(=O)n(Cc3cccc(-c4ncc(OCC5CCN(C(=O)CCCCCCNc6ccc7c(=O)n(C8CCC(=O)NC8=O)ncc7c6)CC5)cn4)c3)n2)c1 (centres unmarked) [ICT-0000985, 3-(1-{[3-(5-{[1-(7-{[2-(2,6-dioxopiperidin-3-yl)-1-oxo-1,2-dihydropthalazine-6-yl]amino}heptanoyl)piperidine-4-il]methoxy}pyrimidine-2-yl)phenyl]methyl}-6-oxo-1,6-dihydropyridazine-3-yl)benzonitrile] | < 100 nM | < 100 nM |  |  |  |

From EP4624466A1, “DEGRADER FOR DECOMPOSING CMET PROTEIN, AND PHARMACEUTICAL COMPOSITION COMPRISING SAME” (Innocure Therapeutics, Inc., priority 2022, dated 2024)
